Experimental data reported in ChEMBL document CHEMBL1156829 (Proc Natl Acad Sci U S A, 2008).

Experiments:
[1] = tested on: Plasmodium falciparum; experiment: NOVARTIS: Inhibition of Plasmodium falciparum W2 (drug-resistant) proliferation in erythrocyte-based infection assay; format: functional, organism-based; details: Plasmodium falciparum, W2; read-out: EC50
[2] = NOVARTIS: Cytotoxicity against human hepatocellular carcinoma cell line (Huh7); format: toxicity, cell-based, Huh-7; details: Huh7 cells (hepatocellular carcinoma cell line)
[3] = tested on: Plasmodium falciparum; experiment: NOVARTIS: Inhibition of Plasmodium falciparum 3D7 (drug-susceptible) proliferation in erythrocyte-based infection assay; format: functional, organism-based; details: Plasmodium falciparum, 3D7

Row | Compound | EC50 [1] [nM] | CC50 [2] [nM] | EC50 [3] [nM]
1 | CCN1CCN(c2cc(C)c3cc(NC(=O)/C=C/c4ccc(OC)cc4)ccc3n2)CC1 | 762 | > 10400 | 905
2 | CCN1CCN(c2cc(C)c3cc(NC(=O)/C=C/c4cccc(Cl)c4)ccc3n2)CC1 | 1010 | > 13800 | 935
3 | CC(C)C1c2[nH]c3ccccc3c2CCN1C(=O)CCl (stereo not drawn) | 377 | > 10000 | 498
4 | CNC(=O)NNC(=O)c1cccnc1 | > 7470 | > 100000 | > 12500
5 | Cc1c2ccccc2c(C)c2ccccc12 | 827 | 21600 | 803
6 | CC(=O)Nc1ccc(Oc2ccc(C(c3ccccc3)(c3ccccc3)c3ccc(Oc4ccc(NC(C)=O)cc4)cc3)cc2)cc1 | 747 | > 10000 | 360
7 | N=c1c2c(n(Cc3cccc(Cl)c3)c3c1CCC3)CCCC2 | 378 | > 10000 | 992
8 | CCCCCCCCCCCCn1ccc(=N)cc1 | 188 | 4990 | 321
9 | Cc1cccc(C2c3[nH]c4ccccc4c3CCN2C(=O)CCCN2CCCCC2=O)n1 (stereo not drawn) | 3770 | > 100000 | > 12500
10 | O=C1CC(c2ccccc2)Oc2ccc(F)cc21 (stereo not drawn) | > 734 | > 10000 | > 1250
11 | CCn1c(SCC(=O)N(c2ccccc2)c2ccccc2)nc2sc3c(c2c1=O)CCN(C)C3 | 7340 | > 100000 | > 5080
12 | CC(C)N(CC(=O)Nc1cc(C(C)(C)C)nn1-c1ccc(Cl)c(Cl)c1)C(=O)c1ccc(C(C)(C)C)cc1 | 7330 | > 100000 | 6030
13 | CCC[n+]1ccc(/C=C/c2ccc(Br)cc2)cc1 | 382 | > 10000 | 645
14 | Fc1ccc(N2CCN(c3ncnc4c3cnn4-c3ccccc3)CC2)cc1 | 3780 | > 100000 | > 12500
15 | CC(=O)N(Cc1ccc2c(c1)OCO2)C1CC(=O)N(c2ccccc2)C1=O (stereo not drawn) | > 381 | > 10000 | > 1250
16 | COc1ccc(OCCNC(=O)c2ccccc2Cl)cc1 | > 380 | > 10000 | > 1250
17 | CCOc1ccccc1CN1CCCC(C(=O)N2CCCCCC2)C1 (stereo not drawn) | 1420 | 37400 | 4400
18 | CC(C)CNC(=O)c1cnc(NCCCn2ccnc2)nc1NCC1CCCCC1 | 379 | > 10000 | 278
19 | O=C(CSc1nc(NCc2ccccc2)c2ccccc2n1)NCc1ccco1 | 378 | > 10000 | 254

Row | Compound | EC50 [1] [nM] | CC50 [2] [nM] | EC50 [3] [nM]
20 | C=CCN1CCN(C(c2ccccc2F)c2nnnn2Cc2ccco2)CC1 (stereo not drawn) | 2910 | > 77000 | > 12500
21 | CCN1CCN(c2cc(C)c3cc(NC(=O)C=Cc4ccccc4Cl)ccc3n2)CC1 | 697 | 18400 | 546
22 | CCN(CC)CCCN(Cc1cc2cc(OC)c(OC)cc2[nH]c1=O)C(=S)Nc1cccc(Cl)c1 | 707 | 18900 | 698
23 | N#CC(C#N)C(C(Sc1ccc([N+](=O)[O-])cc1)=C(O)c1ccccc1)c1cccs1 (stereo not drawn) | 661 | 17700 | 1350
24 | O=C(CN1CCCC1)Nc1ccc(-c2nc3cc(NC(=O)CN4CCCC4)ccc3o2)cc1 | 1360 | 36200 | 2460
25 | COc1ccc(NC(=O)CCCCCn2c(SCC(=O)c3ccccc3)nc3ccsc3c2=O)cc1 | 3760 | > 100000 | 3120
26 | Brc1ccc2ncnc(NCC3CCCO3)c2c1 (stereo not drawn) | 3750 | > 100000 | > 12500
27 | c1cncc(-c2ncc(-c3cnccn3)c(-c3cccnc3)n2)c1 | > 374 | > 10000 | > 1250
28 | N=c1c2c(n(Cc3ccccc3)c3c1CCC3)CCCC2 | 738 | > 10000 | 426
29 | Nc1nnc(SCC(=O)Nc2nnc(SCC(=O)Nc3nccs3)s2)s1 | > 738 | > 10000 | > 1250
30 | Nc1nc(Cl)nc2ccccc12 | 737 | > 10000 | 516
31 | CCN(CC)c1ccc2cc(C(C)=NNC(N)=S)c(=O)oc2c1 | 7460 | > 100000 | 4310
32 | CCCCOc1ccc(/C=C/C(=O)NCc2ccco2)cc1 | 744 | > 10000 | 183
33 | C=C(Cl)CSc1nnc(CCNC(=O)c2ccc(C)cc2)n1-c1ccc(F)cc1 | 7430 | > 100000 | > 12500
34 | COc1cc(NC(C)CCCN(Cc2ccc(F)cc2)C(=O)c2ccccc2F)c2ncccc2c1 (stereo not drawn) | 649 | > 8740 | 692
35 | COC(=O)CNC(=O)c1sc2ncn(CC(=O)Nc3ccccc3OC)c(=O)c2c1C | > 739 | > 10000 | > 948
36 | O=C1C(O)=CC(=Nc2ccc(Cc3ccncc3)cc2)c2ccccc21 | 739 | > 10000 | 496
37 | Cc1ccccc1C(=O)N(CC(=O)Nc1cc(C(C)(C)C)nn1-c1ccccc1Cl)C(C)C | 649 | > 8810 | 1090
38 | COC(=O)CSc1nnc2c(n1)[nH]c1c(OC)ccc(Cl)c12 | 736 | > 10000 | 642

Row | Compound | EC50 [1] [nM] | CC50 [2] [nM] | EC50 [3] [nM]
39 | Cc1ccccc1OCCSc1nc2ccc(NC(=O)c3ccccc3)cc2s1 | > 7470 | > 100000 | 9760
40 | O=C1NCCN1C(=O)C(c1ccccc1)c1ccccc1 | > 746 | > 10000 | > 1540
41 | COC(=O)c1c(NC(=O)c2cc3ccccc3oc2=O)sc2c1CCC(C)C2 (stereo not drawn) | > 7460 | > 100000 | > 12500
42 | Cc1cc(C)nc(SCc2cc(=O)c(OC(=O)c3cccc([N+](=O)[O-])c3C)co2)n1 | > 7470 | > 100000 | > 12500
43 | CCN(CC)CCCC(C)Nc1ccnc2ccc([N+](=O)[O-])cc12 (stereo not drawn) | 747 | > 10000 | 249
44 | COc1ccc(Nc2nc(-c3cc4cc(OC)ccc4oc3=O)cs2)c(OC)c1 | > 7470 | > 100000 | > 12500
45 | CC(C)c1cccc(C(C)C)c1NC(=O)N(Cc1ccccc1)C(C)c1nc2ccccc2c(=O)n1-c1ccccc1 (stereo not drawn) | 738 | > 10000 | 1310
46 | CCC(C)NC(=O)c1nn(-c2cccc(OC)c2)c(=O)c2ccccc12 (stereo not drawn) | 3810 | > 100000 | 1970
47 | CC1CCC(C(C)C)C(OC(=O)Cn2c(-c3ccccc3)[n+](C)c3ccccc32)C1 (stereo not drawn) | 426 | > 11200 | 376
48 | COc1cc(/C=C/C(=O)Nc2ccc3nc(N4CCN(c5ncccn5)CC4)cc(C)c3c2)cc(OC)c1OC | 739 | > 10000 | 1330
49 | CC(C)C1Oc2cc3oc(=O)ccc3cc2C1=NO (stereo not drawn) | 743 | > 10000 | > 1150
50 | Cc1sc2nc3c4ccccc4c(NCCCN(C)C)nn3c(=O)c2c1C | 2300 | 60000 | 6600
51 | CCN(CC)c1ccc2c(C)cc(Nc3ccccc3)[o+]c2c1 | 746 | > 10000 | 239
52 | CCOC(=O)c1[nH]c(CSC#N)c(C(C)=O)c1C | > 378 | > 10000 | > 1250
53 | c1ccc(C[C@H]2CN(c3ccccc3)CCN2CCNCCOc2ccccc2)cc1 | 200 | > 5320 | 261
54 | CCC(=O)N1CCc2cc(Br)cc(S(=O)(=O)N3CCN(CC)CC3)c21 | > 744 | > 10000 | > 1630
55 | NC(=O)Oc1ccc(Cc2ccccc2)cc1 | 738 | > 10000 | 843
56 | CC1=C(CC(=O)c2cccs2)C(=O)c2ccccc2C1=O | 290 | 7750 | 1240
